From ChEMBL document CHEMBL4507318, “Data for DCP probe BAY-985” (2021)

Key:
[1] = target: RAC-beta serine/threonine-protein kinase (Homo sapiens) (UniProt P31751)
[2] = target: Tyrosine-protein kinase BTK (Homo sapiens) (UniProt Q06187)
[3] = target: Calcium/calmodulin-dependent protein kinase type 1G (Homo sapiens) (UniProt Q96NX5)
[4] = target: Calcium/calmodulin-dependent protein kinase type II subunit beta (Homo sapiens) (UniProt Q13554)
[5] = target: Citron Rho-interacting kinase (Homo sapiens) (UniProt O14578)
[6] = target: Macrophage colony-stimulating factor 1 receptor (Homo sapiens) (UniProt P07333)
[7] = target: Casein kinase II subunit alpha (Homo sapiens) (UniProt P68400)
[8] = target: Death-associated protein kinase 2 (Homo sapiens) (UniProt Q9UIK4)
[9] = target: Epithelial discoidin domain-containing receptor 1 (Homo sapiens) (UniProt Q08345)
[10] = target: Eukaryotic translation initiation factor 2-alpha kinase 1 (Homo sapiens) (UniProt Q9BQI3)
[11] = tested on: Receptor-type tyrosine-protein kinase FLT3 (Homo sapiens), P36888 [D835V]
[12] = tested on: Receptor-type tyrosine-protein kinase FLT3 (Homo sapiens), P36888 [K663Q]
[13] = target: Vascular endothelial growth factor receptor 3 (Homo sapiens) (UniProt P35916)
[14] = target: Mitogen-activated protein kinase 9 (Homo sapiens) (UniProt P45984)
[15] = tested on: Mast/stem cell growth factor receptor Kit (Homo sapiens), P10721 [D816V]
[16] = target: Tyrosine-protein kinase Lyn (Homo sapiens) (UniProt P07948)
[17] = target: Mitogen-activated protein kinase kinase kinase 1 (Homo sapiens) (UniProt Q13233)
[18] = target: MAP kinase-activated protein kinase 5 (Homo sapiens) (UniProt Q8IW41)
[19] = target: Dual specificity mitogen-activated protein kinase kinase 1 (Homo sapiens) (UniProt Q02750)
[20] = target: Dual specificity mitogen-activated protein kinase kinase 3 (Homo sapiens) (UniProt P46734)
[21] = target: Dual specificity mitogen-activated protein kinase kinase 7 (Homo sapiens) (UniProt O14733)
[22] = target: Myosin light chain kinase (Homo sapiens) (UniProt Q32MK0)
[23] = target: Myosin-IIIa (Homo sapiens) (UniProt Q8NEV4)
[24] = target: Serine/threonine-protein kinase NLK (Homo sapiens) (UniProt Q9UBE8)
[25] = target: Serine/threonine-protein kinase OSR1 (Homo sapiens) (UniProt O95747)
[26] = target: Mitogen-activated protein kinase 13 (Homo sapiens) (UniProt O15264)
[27] = target: Serine/threonine-protein kinase PAK 1 (Homo sapiens) (UniProt Q13153)
[28] = tested on: Phosphatidylinositol 4,5-bisphosphate 3-kinase catalytic subunit alpha isoform (Homo sapiens), P42336 [H1047L]
[29] = target: Serine/threonine-protein kinase N1 (Homo sapiens) (UniProt Q16512)
[30] = target: Serine/threonine-protein kinase PknB (Mycobacterium tuberculosis) (UniProt P9WI81)
[31] = target: Serine/threonine-protein kinase PLK1 (Homo sapiens) (UniProt P53350)
[32] = target: Serine/threonine-protein kinase PLK4 (Homo sapiens) (UniProt O00444)
[33] = target: Protein kinase C delta type (Homo sapiens) (UniProt Q05655)
[34] = target: Serine/threonine-protein kinase PRP4 homolog (Homo sapiens) (UniProt Q13523)
[35] = target: Serine/threonine-protein kinase RIO3 (Homo sapiens) (UniProt O14730)
[36] = target: Ribosomal protein S6 kinase alpha-1 (Homo sapiens) (UniProt Q15418)
[37] = target: Serine/threonine-protein kinase Sgk1 (Homo sapiens) (UniProt O00141)
[38] = target: Serine/threonine-protein kinase 36 (Homo sapiens) (UniProt Q9NRP7)
[39] = target: Tyrosine-protein kinase SYK (Homo sapiens) (UniProt P43405)
[40] = target: Angiopoietin-1 receptor (Homo sapiens) (UniProt Q02763)
[41] = target: Testis-specific serine/threonine-protein kinase 1 (Homo sapiens) (UniProt Q9BXA7)
[42] = target: Tyrosine-protein kinase TXK (Homo sapiens) (UniProt P42681)
[43] = target: Delta-type opioid receptor (Homo sapiens) (UniProt P41143); details: Compound concentration 10.0 uM
[44] = target: Histamine H3 receptor (Homo sapiens) (UniProt Q9Y5N1); details: Compound concentration 10.0 uM
[45] = target: Alpha-2A adrenergic receptor (Homo sapiens) (UniProt P08913); details: Compound concentration 10.0 uM
[46] = Compound concentration 1000.0 nM
[47] = Compound concentration 100.0 nM

Sequence of Serine/threonine-protein kinase PAK 1 (Homo sapiens) (Q13153 whole entry, canonical isoform): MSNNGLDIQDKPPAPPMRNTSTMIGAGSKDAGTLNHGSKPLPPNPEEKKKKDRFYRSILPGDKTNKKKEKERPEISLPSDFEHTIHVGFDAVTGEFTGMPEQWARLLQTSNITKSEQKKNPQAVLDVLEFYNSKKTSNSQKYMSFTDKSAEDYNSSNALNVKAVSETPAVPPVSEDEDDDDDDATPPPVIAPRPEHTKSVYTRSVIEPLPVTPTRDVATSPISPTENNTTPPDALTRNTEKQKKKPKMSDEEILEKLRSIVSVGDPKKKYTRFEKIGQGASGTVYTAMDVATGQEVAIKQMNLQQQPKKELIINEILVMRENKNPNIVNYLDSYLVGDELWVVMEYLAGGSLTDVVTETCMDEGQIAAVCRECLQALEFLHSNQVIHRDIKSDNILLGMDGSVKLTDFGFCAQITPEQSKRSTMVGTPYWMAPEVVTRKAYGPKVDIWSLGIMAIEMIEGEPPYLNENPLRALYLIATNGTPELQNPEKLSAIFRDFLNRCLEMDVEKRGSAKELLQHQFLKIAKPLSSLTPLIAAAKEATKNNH
Sequence of Mitogen-activated protein kinase 13 (Homo sapiens) (O15264 whole entry): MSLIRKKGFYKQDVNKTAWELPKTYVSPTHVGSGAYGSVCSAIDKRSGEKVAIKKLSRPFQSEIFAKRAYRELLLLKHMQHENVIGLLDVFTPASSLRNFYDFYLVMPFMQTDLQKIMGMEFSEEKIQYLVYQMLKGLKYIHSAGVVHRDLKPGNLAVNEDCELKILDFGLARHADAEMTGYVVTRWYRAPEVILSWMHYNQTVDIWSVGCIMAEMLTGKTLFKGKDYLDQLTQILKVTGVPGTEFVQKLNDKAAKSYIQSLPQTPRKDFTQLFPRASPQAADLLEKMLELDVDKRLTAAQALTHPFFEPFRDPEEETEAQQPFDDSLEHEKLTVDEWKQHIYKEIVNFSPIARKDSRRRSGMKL
Sequence of Dual specificity mitogen-activated protein kinase kinase 3 (Homo sapiens) (P46734 whole entry): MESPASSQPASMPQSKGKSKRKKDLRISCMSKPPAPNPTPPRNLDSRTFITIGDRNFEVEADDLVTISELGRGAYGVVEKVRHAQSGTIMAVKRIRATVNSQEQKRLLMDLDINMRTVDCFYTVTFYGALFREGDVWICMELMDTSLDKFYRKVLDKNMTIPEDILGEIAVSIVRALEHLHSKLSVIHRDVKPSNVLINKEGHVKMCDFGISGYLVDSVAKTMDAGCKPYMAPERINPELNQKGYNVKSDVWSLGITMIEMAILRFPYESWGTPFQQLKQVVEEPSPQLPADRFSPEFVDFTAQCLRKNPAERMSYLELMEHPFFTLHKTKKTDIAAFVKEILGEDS
Sequence of Myosin light chain kinase (Homo sapiens) (Q32MK0 whole entry): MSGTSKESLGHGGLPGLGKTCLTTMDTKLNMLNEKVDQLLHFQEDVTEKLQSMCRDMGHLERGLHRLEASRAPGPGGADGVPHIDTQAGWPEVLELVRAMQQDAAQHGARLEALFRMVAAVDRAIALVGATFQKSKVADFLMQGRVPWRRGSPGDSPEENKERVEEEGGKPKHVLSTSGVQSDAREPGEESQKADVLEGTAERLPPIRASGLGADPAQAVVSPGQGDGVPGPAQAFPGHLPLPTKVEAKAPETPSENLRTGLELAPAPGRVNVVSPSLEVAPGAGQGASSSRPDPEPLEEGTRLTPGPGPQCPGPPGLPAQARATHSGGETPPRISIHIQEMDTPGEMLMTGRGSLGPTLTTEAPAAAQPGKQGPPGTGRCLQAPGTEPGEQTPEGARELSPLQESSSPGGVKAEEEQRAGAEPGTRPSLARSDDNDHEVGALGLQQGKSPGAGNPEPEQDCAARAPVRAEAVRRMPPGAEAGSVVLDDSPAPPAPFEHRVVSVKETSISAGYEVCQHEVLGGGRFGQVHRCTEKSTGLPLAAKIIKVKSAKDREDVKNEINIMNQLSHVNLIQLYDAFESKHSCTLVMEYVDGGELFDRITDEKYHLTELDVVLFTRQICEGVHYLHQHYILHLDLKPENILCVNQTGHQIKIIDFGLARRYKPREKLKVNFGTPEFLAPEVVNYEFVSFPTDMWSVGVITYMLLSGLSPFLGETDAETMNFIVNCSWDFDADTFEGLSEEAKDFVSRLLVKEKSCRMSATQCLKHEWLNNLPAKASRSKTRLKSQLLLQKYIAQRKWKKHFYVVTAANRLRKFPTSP
Sequence of Serine/threonine-protein kinase PLK4 (Homo sapiens) (O00444 whole entry): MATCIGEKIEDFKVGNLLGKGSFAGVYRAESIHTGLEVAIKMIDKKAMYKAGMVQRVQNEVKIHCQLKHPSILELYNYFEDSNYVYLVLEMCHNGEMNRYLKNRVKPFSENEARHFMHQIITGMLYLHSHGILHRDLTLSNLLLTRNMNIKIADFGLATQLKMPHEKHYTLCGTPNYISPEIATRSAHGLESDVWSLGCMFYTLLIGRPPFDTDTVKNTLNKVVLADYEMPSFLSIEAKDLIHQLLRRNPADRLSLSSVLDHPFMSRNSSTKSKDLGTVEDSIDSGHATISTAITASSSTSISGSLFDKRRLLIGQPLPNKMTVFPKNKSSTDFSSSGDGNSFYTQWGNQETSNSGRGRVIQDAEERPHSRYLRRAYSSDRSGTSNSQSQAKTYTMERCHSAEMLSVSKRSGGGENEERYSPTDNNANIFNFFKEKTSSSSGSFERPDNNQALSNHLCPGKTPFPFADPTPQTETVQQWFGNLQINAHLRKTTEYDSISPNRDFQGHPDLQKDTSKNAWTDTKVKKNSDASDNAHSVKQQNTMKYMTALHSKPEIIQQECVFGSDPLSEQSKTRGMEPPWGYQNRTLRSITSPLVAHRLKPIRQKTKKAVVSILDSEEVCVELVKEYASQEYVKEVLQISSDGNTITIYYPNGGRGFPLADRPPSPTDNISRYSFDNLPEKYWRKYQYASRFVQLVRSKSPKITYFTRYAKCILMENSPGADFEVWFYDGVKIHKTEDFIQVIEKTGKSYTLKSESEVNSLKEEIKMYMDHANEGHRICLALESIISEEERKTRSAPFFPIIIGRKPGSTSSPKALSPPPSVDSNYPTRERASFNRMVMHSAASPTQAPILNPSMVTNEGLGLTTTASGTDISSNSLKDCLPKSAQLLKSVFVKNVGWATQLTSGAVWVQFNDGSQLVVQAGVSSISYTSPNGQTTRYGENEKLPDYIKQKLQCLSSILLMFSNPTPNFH
Sequence of Serine/threonine-protein kinase Sgk1 (Homo sapiens) (O00141 whole entry): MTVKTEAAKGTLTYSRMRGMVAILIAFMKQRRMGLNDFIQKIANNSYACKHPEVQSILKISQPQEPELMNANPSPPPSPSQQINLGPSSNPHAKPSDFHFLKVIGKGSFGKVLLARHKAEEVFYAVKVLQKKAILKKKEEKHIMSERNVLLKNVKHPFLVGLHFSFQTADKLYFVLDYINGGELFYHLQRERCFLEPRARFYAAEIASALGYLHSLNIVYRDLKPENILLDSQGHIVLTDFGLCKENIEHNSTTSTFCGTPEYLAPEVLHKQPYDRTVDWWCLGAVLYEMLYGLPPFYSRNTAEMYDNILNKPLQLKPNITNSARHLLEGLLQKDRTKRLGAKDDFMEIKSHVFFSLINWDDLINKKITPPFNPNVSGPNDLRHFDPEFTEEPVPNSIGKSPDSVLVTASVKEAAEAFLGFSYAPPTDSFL
Sequence of Serine/threonine-protein kinase PRP4 homolog (Homo sapiens) (Q13523 whole entry): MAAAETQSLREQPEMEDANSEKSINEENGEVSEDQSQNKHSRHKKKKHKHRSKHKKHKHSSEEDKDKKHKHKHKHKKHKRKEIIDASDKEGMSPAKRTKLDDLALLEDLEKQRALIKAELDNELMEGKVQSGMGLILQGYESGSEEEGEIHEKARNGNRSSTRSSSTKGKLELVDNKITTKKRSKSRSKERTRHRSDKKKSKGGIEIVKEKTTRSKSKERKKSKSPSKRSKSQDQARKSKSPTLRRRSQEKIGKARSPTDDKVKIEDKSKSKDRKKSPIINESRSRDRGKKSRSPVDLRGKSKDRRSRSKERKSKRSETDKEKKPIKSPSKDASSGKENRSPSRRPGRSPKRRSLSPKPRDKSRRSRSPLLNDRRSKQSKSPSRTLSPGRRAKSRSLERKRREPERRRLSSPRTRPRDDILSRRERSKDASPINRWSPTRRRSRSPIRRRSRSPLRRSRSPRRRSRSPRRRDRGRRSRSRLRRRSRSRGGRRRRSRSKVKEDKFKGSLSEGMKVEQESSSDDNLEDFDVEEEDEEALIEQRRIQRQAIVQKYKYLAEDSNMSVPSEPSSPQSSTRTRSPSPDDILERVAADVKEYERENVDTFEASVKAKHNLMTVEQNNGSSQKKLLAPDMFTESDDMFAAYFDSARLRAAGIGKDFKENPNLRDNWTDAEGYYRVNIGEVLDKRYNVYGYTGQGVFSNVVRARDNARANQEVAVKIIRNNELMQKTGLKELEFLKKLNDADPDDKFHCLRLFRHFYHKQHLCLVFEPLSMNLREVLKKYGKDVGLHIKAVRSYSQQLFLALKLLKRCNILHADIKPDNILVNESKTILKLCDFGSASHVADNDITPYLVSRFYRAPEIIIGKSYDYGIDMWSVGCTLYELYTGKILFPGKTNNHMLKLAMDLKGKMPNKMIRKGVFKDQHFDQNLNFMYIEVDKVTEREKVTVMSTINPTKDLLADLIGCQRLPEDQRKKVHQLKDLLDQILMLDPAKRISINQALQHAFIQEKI
Sequence of Mitogen-activated protein kinase 9 (Homo sapiens) (P45984 whole entry, looked up): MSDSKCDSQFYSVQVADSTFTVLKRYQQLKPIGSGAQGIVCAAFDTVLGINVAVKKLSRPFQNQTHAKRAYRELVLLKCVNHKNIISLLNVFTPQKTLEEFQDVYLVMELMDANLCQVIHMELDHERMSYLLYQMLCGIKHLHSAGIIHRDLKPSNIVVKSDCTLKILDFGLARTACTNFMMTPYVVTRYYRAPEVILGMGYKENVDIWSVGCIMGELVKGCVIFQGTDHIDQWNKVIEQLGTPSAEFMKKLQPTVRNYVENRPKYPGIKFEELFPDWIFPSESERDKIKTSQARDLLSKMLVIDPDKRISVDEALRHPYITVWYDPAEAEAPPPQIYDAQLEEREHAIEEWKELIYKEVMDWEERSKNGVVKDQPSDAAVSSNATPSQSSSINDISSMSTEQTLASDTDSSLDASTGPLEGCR

## CN(C)c1ncnc(-c2ccc3nc(Nc4cc(CN5CCN(C(=O)CC(F)(F)F)CC5)ccn4)[nH]c3c2)c1Cl [BAY-440]
[1]; [46]
  residual activity: 95%
[2]; [46]
  residual activity: 80%
[3]; [46]
  residual activity: 100%
[4]; [46]
  residual activity: 100%
[5]; [46]
  residual activity: 100%
[6]; [46]
  residual activity: 100%
[7]; [46]
  residual activity: 80%
[8]; [46]
  residual activity: 100%
[9]; [46]
  residual activity: 75%
[10]; [46]
  residual activity: 54%
[11]; [46]
  residual activity: 7%
[12]; [46]
  residual activity: 81%
[13]; [46]
  residual activity: 63%
[14]; [46]
  residual activity: 47%
[15]; [46]
  residual activity: 97%
[16]; [46]
  residual activity: 94%
[17]; [46]
  residual activity: 100%
[18]; [46]
  residual activity: 96%
[19]; [46]
  residual activity: 78%
[20]; [46]
  residual activity: 73%
[21]; [46]
  residual activity: 100%
[22]; [46]
  residual activity: 90%
[23]; [46]
  residual activity: 100%
[24]; [46]
  residual activity: 88%
[25]; [46]
  residual activity: 94%
[26]; [46]
  residual activity: 100%
[27]; [46]
  residual activity: 100%
[28]; [46]
  residual activity: 61%
[29]; [46]
  residual activity: 100%
[30]; [46]
  residual activity: 100%
[31]; [46]
  residual activity: 59%
[32]; [46]
  residual activity: 76%
[33]; [46]
  residual activity: 100%
[34]; [46]
  residual activity: 100%
[35]; [46]
  residual activity: 92%
[36]; [46]
  residual activity: 100%
[37]; [46]
  residual activity: 37%
[38]; [46]
  residual activity: 98%
[39]; [46]
  residual activity: 96%
[40]; [46]
  residual activity: 87%
[41]; [46]
  residual activity: 100%
[42]; [46]
  residual activity: 95%
[43]
  inhibition: 2.06%
[44]
  inhibition: 4.68%
[45]
  inhibition: 15.7%

## C[C@H](c1ccnc(Nc2nc3ccc(-c4cc(N(C)C)ncn4)cc3[nH]2)c1)N1CCN(C(=O)CC(F)(F)F)CC1 [BAY-985]
[1]; [47]
  residual activity: 100%
[2]; [47]
  residual activity: 100%
[3]; [47]
  residual activity: 76%
[4]; [47]
  residual activity: 92%
[5]; [47]
  residual activity: 78%
[6]; [47]
  residual activity: 100%
[7]; [47]
  residual activity: 100%
[8]; [47]
  residual activity: 74%
[9]; [47]
  residual activity: 100%
[10]; [47]
  residual activity: 100%
[11]; [47]
  residual activity: 32%
[12]; [47]
  residual activity: 60%
[13]; [47]
  residual activity: 92%
[14]; [47]
  residual activity: 89%
[15]; [47]
  residual activity: 96%
[16]; [47]
  residual activity: 97%
[17]; [47]
  residual activity: 100%
[18]; [47]
  residual activity: 86%
[19]; [47]
  residual activity: 99%
[20]; [47]
  residual activity: 97%
[21]; [47]
  residual activity: 92%
[22]; [47]
  residual activity: 100%
[23]; [47]
  residual activity: 100%
[24]; [47]
  residual activity: 88%
[25]; [47]
  residual activity: 100%
[26]; [47]
  residual activity: 80%
[27]; [47]
  residual activity: 77%
[28]; [47]
  residual activity: 100%
[29]; [47]
  residual activity: 100%
[30]; [47]
  residual activity: 91%
[31]; [47]
  residual activity: 100%
[32]; [47]
  residual activity: 96%
[33]; [47]
  residual activity: 100%
[34]; [47]
  residual activity: 80%
[35]; [47]
  residual activity: 97%
[36]; [47]
  residual activity: 100%
[37]; [47]
  residual activity: 94%
[38]; [47]
  residual activity: 97%
[39]; [47]
  residual activity: 31%
[40]; [47]
  residual activity: 99%
[41]; [47]
  residual activity: 100%
[42]; [47]
  residual activity: 96%
[43]
  inhibition: 29%
[44]
  inhibition: -3.83%
[45]
  inhibition: 24.2%
